According to patent EP0888303B1, “SYNTHETIC DERIVATIVES OF RAPAMYCIN AS MULTIMERIZING AGENTS FOR CHIMERIC PROTEINS WITH IMMUNOPHILIN-DERIVED DOMAINS” (ARIAD Pharmaceuticals, Inc, priority 1996, dated 1997):
Values joined by “and” are separate entries in the source; they are usually repeats but may differ in a detail not shown here. Identical values can stand only once. Like-named read-outs stand apart in the source and are kept apart here.

Columns and labels:
F36L mutant FKBP = F36L mutant FKBP (Homo sapiens, UniProt P62942, F37L); experiment: Competitive Binding FP Assay
F36L mutant FKBP, sequence (P62942 2-108 F37L): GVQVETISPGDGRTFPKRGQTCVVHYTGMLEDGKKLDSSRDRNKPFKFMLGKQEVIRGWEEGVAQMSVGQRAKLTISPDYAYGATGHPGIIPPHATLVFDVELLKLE
Description: (§1) Affinities of bumped synthetic ligands for FKBP were determined using a competitive assay based on fluorescence polarization (FP). […] The assay yields IC50 values that are related to the affinity of the competitive ligand for the protein.
(§2) All binding assay procedures were performed at room temperature. Serial dilutions of each protein were prepared in 50 mM potassium phosphate pH 7.8/150 mM NaCl/ 100µg/ml bovine gamma globulin ("FP buffer": prepared using only low-fluorescence reagents from Panvera), and 100 µl volumes transferred to wells of a Dynatech micro-fluor black 96-well fluorescence plate. 100 µl of 10 nM 4 in FP buffer plus 2% ethanol (prepared from an ethanol stock of the probe) was then added to each well with mixing. Duplicate control wells contained FP buffer instead of FKBP (for 0% probe binding) or 10 µM wild-type FKBP (for 100% binding).
(§3) The plates were stored covered in the dark for approximately 30 min to permit equilibration and then the fluorescence polarization of the sample in each well was read on a Jolley FPM-2 FP plate reader (Jolley Consulting and Research, Inc., Grayslake, IL) in accordance with the manufacturer's recommendations. Polarization (mP units) for each protein concentration was plotted (y axis) vs. final concentration of FKBP (x axis). Concentrations were determined by OD280 measurements. Arbitrary units were used for non-quantitated proteins.
(§4) Serial 10-fold dilutions of each synthetic ligand were prepared in 100% ethanol in glass vials and stored on ice. All other manipulations were performed at room temperature. […] 2.0 µl samples of the synthetic ligands were then transferred in duplicate to the wells with mixing. Finally, a probe solution was prepared containing 10 nM 4 in 0.1% ethanol/FP buffer, and 100 µl added to each well with mixing. Duplicate control wells contained ethanol instead of FKBP ligand (for 100% probe binding) or ethanol instead of FKBP ligand and FP buffer instead of FKBP (0% binding).
(§5) The plates were stored covered in the dark for approximately 30 min to permit equilibration and then the fluorescence polarization of the sample in each well read on a Jolley FPM-2 FP plate reader (Jolley Consulting and Research, Inc., Grayslake, IL) in accordance with the manufacturer's recommendations. The mean polarization (mP units) for each competitor concentration, in some cases converted to % total binding by reference to the control values, was plotted (y axis) vs. log molar final concentration of competitor (x axis). […] For incomplete curves the IC50 was determined by interpolation.

wild-type human FKBP12 = wild-type human FKBP12 (Homo sapiens, UniProt P62942); experiment: Competitive Binding FP Assay
wild-type human FKBP12, sequence (P62942 2-108): as the sequence (P62942 2-108 F37L) above, with L36F counted along it
Description: as §1, §2, §3
Serial 10-fold dilutions of each synthetic ligand were prepared in 100% ethanol in glass vials and stored on ice. All other manipulations were performed at room temperature. […] Finally, a probe solution was prepared containing 10 nM 4 in 0.1% ethanol/FP buffer, and 100 µl added to each well with mixing. Duplicate control wells contained ethanol instead of FKBP ligand (for 100% probe binding) or ethanol instead of FKBP ligand and FP buffer instead of FKBP (0% binding).
as §5

mutant (F36V) FKBP = experiment: Competitive Binding FP Assay; set-up: species or system human
Description: as §1, §2, §3, §4, §5

F36A mutant FKBP = experiment: Competitive Binding FP Assay; set-up: species or system human; settings: Synthetic Monomers table; normalized to value of FK506 run in the same experiment
Description: as §1, §2, §3, §4, §5

F36I mutant FKBP = experiment: Competitive Binding FP Assay; set-up: species or system human; settings: Synthetic Monomers table; normalized to value of FK506 run in the same experiment
Description: as §1, §2, §3, §4, §5

F36M mutant FKBP = experiment: Competitive Binding FP Assay; set-up: species or system human; settings: Synthetic Monomers table; normalized to value of FK506 run in the same experiment
Description: as §1, §2, §3, §4, §5

[1] = test system: FKBP-containing fusion proteins (wt FKBP); experiment: Transcription Assay, activation of reporter gene transcription (wt; stable); format: cell-based, human; settings: at 1000 nM; each value an individual experiment
Text: The ability of the multimerizing agents to multimerize chimeric proteins may be measured cell-based assays by measuring the occurrence of an event triggered by such multimerization. For instance, one may use cells containing and capable of expressing DNAs encoding chimeric proteins comprising one or more immunophilin-derived ligand binding domains and one or more effector domains capable, upon multimerization, of actuating a biological response. We prefer to use cells which further contain a reporter gene under the transcriptional control of a regulatory element (i.e., promoter) which is responsive to the multimerization of the chimeric proteins (at least one of which contains an FKBP domain). […] The cells are grown or maintained in culture. A multimerizing agent is added to the culture medium and after a suitable incubation period (to permit gene expression and secretion, e.g. several hours or overnight) the presence of the reporter gene product is measured. Positive results, i.e., multimerization, correlates with transcription of the reporter gene as observed by the appearance of the reporter gene product. The reporter gene product may be a conveniently detectable protein (e.g. by ELISA) or may catalyze the production of a conveniently detectable product (e.g. colored).
Dimerizers may also be assayed for their ability to activate transcription of a reporter gene linked to a regulatory sequence responsive to the dimerization of FKBP-containing fusion proteins containing one or more transcription regulatory domains (e.g. DNA binding domains and transcription activation domains). We have made use of such as system as follows. […] The reporter plasmid (G5IL2-SEAP) used in these assays contains a gene that encodes for secreted alkaline phosphatase (SEAP) under the control of the minimal IL2 promoter and 5XGAL4 binding sites placed upstream of the promoter. In all cases, a plasmid expressing growth hormone was used as an internal control to moniter transfection efficiency. Approximately, 16 hrs after transfection, the media was removed and the cells were washed twice with PBS. Cells were refed with 2.5 ml of DMEM containing 10% serum and two hours later, synthetic dimerizers were added directly to the medium at appropriate concentrations in 5ul of ethanol carrier solution. Approximetely, 24 hrs after the addition of the drugs, 100 ul of the media was removed and assayed for SEAP activity and another 100 ul of the media was used to assay for growth hormone activity (to normalize for transfection efficiency).

[2] = test system: FAS-FKBP fusion (wt FKBP) in HT1080 cells; format: cell-based, human; settings: for Fas killing (wt, stable): % @ 1000: human, ht1080 cells, 1 µM
Text: In this case, one uses cells which constituively express a detectable product. The cells also contain and are capable of expressing DNAs encoding chimeric proteins comprising one or more immunophilin-derived ligand binding domains and one or more effector domains, such as the intracellular domain of FAS, capable, upon multimerization, of triggering cell death. […] The cells are maintainined or cultured in a culture medium permitting cell growth or continued viability. The cells or medium are assayed for the presence of the constitutive cellular product, and a base-line level of reporter is thus established. One may use cells engineered for constituive production of hGH or any other conveniently detectable product to serve as the reporter. The compound to be tested is addded to the medium, the cells are incubated, and the cells or medium is tested for the presence of reporter at one or more time points. Decrease in reporter production indicates cell death, an indirect measure of multimerization of the fusion proteins.
The ability of a dimerizer to activate the Fas signal transduction pathway and trigger cell death in cells engineered to express a FAS-FKBP fusion can be tested in cells appropriately transduced by retroviral vectors to express the desired fusion protein. […] The retroviral supernatant is used to transduce target cells. To screen compounds and constructs, we used the human fibrosarcoma line HT1080. Two to three days after transfection, cells are plated into G418 and the resistant population or clones are isolated by standard means. To monitor dimerizer-induced apoptosis, cells are plated into a 96-well plate at either 5000 or 10,000 cells/well in MEM medium containing 10% fetal bovine serum. The next day, medium removed and replaced with freshmedium containing the test compound at various dilutions, in triplicate. In some cases, Actinomycin D is included at 50 ng/ml. Untreated wells are always included. The next day, medium is removed and replaced with medium containing 10% Alamar Blue viability indicator, which changes absorbance properties as a function of reducing agent released into the medium by cell metabolism. Alternatively, cells are counted. Optical density at the appropriate wavelength is measured using a platereader spectroscope.

[3] = test system: cells expressing a construct containing p75 followed by 2 mutant FKBPs followed by a Fas effector domain; experiment: Cell death monitored by Alamar Blue or hGH levels in hGH-expressing clones; format: cell-based
Text: As an alternative method for monitoring cell death, cells expressing a construct containing p75 followed by 2 mutant FKBPs followed by a Fas effector domain were transfected using an episomal vector, pCEP4 (Invitrogen Corp.) into which we had inserted DNA encoding hGH under control of a CMV promoter. The vector confers resistance to hygromycin. […] Monitoring Alamar Blue or hGH levels led to very similar EC50 curves for cell viability (measured as a % of control value) plotted against dimerizer concentration. In both cases the concentration of dimerizer corresponding to 50% of control was less than 1 nM.

[4] = Synthetic Monomers table, normalized to value of FK506 run in the same experiment, read-out: F36L IC50
[5] = Synthetic Monomers table, normalized to value of FK506 run in the same experiment, read-out: wild-type IC50
[6] = Synthetic Monomers table, normalized to value of FK506 run in the same experiment, read-out: F36V IC50
[7] = read-out: FKBPwt binding affinity IC50
[8] = Synthetic Multimerizers table, monomer value in brackets, mean of duplicates, normalized to FK506 = […] (substituted phenyl/lower aliphatic series: to AP1903 values), read-out: FKBPF36V binding affinity IC50

| Compound | IC50 (F36L mutant FKBP; [4]) | IC50 (wild-type human FKBP12; [5]) | IC50 (mutant (F36V) FKBP; [6]) | IC50 (F36A mutant FKBP) | IC50 (F36I mutant FKBP) | IC50 (F36M mutant FKBP) | IC50 (mutant (F36V) FKBP; [8]) | further results |
| --- | --- | --- | --- | --- | --- | --- | --- | --- |
| COc1ccc(CCC(OC(=O)C2CCCCN2C(=O)C(c2ccccc2)C2CCCC2)c2cccc(OCC(=O)O)c2)cc1OC (mixture of isomers) [AP1778] | 32 nM | 16000 nM | 22 nM |  |  |  |  |  |
| COc1ccc(CCC(OC(=O)C2CCCCN2C(=O)C(c2ccccc2)C(C)C)c2cccc(OCC(=O)O)c2)cc1OC (mixture of isomers) [AP1781] | 33 nM | 38600 nM | 26 nM |  |  |  |  |  |
| COc1ccc(CCC(OC(=O)C2CCCCN2C(=O)C(Cc2ccccc2)c2ccccc2)c2cccc(OCC(=O)O)c2)cc1OC (mixture of isomers) [AP1831] | 217 nM | > 10000 nM | 153 nM |  |  |  |  |  |
| CCC(C)(C)C(=O)C(=O)N1CCCC[C@H]1C(=O)O[C@H](CCc1ccc(OC)c(OC)c1)c1cccc(OCC(=O)O)c1 [AP1497] | 47 nM | 86 nM | 44 nM |  |  |  |  |  |
| CC[C@@H](C(=O)N1CCCC[C@H]1C(=O)O[C@H](CCc1ccc(OC)c(OC)c1)c1cccc(OCC(=O)O)c1)c1ccccc1 [AP1769] | 238 nM | 220000 nM | 133 nM | 460 nM | 346 nM | 193 nM |  |  |
| COc1ccc(CC[C@@H](OC(=O)[C@@H]2CCCCN2C(=O)Cc2ccccc2)c2cccc(OCC(=O)O)c2)cc1OC [AP1780] |  | 21600 nM | 1530 nM | 8330 nM | 2060 nM | 2600 nM |  | IC50 (F36L mutant FKBP; read-out: F36L IC50): 3580 nM |
| COc1ccc(CC[C@@H](OC(=O)[C@@H]2CCCCN2C(=O)[C@H](C)c2ccccc2)c2cccc(OCC(=O)O)c2)cc1OC [AP1782] | 1400 nM | > 100000 nM | 590 nM | 1430 nM | 1050 nM | 927 nM |  |  |
| COc1ccc(CC[C@@H](OC(=O)[C@@H]2CCCCN2C(=O)[C@@H](C)c2ccccc2)c2cccc(OCC(=O)O)c2)cc1OC [AP1784] | 92 nM | 16000 nM | 94 nM | 171 nM | 117 nM | 414 nM |  |  |
| CCC(C(=O)N1CCCC[C@H]1C(=O)O[C@H](CCc1ccc(OC)c(OC)c1)c1cccc(OCC(=O)O)c1)c1ccc2c(c1)OCO2 (some centres unmarked) [AP1839] |  | 13500 nM | 9 nM | 32 nM | 26 nM | 19 nM | 5.4 nM | IC50 (F36L mutant FKBP; read-out: F36L IC50): 57 nM; IC50 (wild-type human FKBP12; [7]): 16700 nM |
| CC[C@H](C(=O)N1CCCC[C@H]1C(=O)O[C@H](CCc1ccc(OC)c(OC)c1)c1cccc(OCC(=O)O)c1)c1cc(OC)c(OC)c(OC)c1 [AP1867] |  |  |  |  |  |  | 1.8 nM | IC50 (F36L mutant FKBP; read-out: FKBPF36L binding affinity IC50): 6.2 nM; IC50 (wild-type human FKBP12; [7]): 1960 nM |
| CCC(C(=O)N1CCCC[C@H]1C(=O)O[C@H](CCc1ccc(OC)c(OC)c1)c1cccc(OCC(=O)NCCNC(=O)COc2cccc([C@@H](CCc3ccc(OC)c(OC)c3)OC(=O)[C@@H]3CCCCN3C(=O)C(CC)c3ccc4c(c3)OCO4)c2)c1)c1ccc2c(c1)OCO2 (some centres unmarked) [AP1885] |  |  |  |  |  |  | 59.4 nM | activation of transcription (wt; stable): % @ 1000 [1]: 0% @ 1000; Fas killing (wt, stable): % @ 1000 [2]: 0% @ 1000 |
| CC[C@H](C(=O)N1CCCC[C@H]1C(=O)O[C@H](CCc1ccc(OC)c(OC)c1)c1cccc(OCC(=O)NCCNC(=O)COc2cccc([C@@H](CCc3ccc(OC)c(OC)c3)OC(=O)[C@@H]3CCCCN3C(=O)[C@@H](CC)c3ccccc3)c2)c1)c1ccccc1 [AP1889] |  |  |  |  |  |  | 10000 nM | activation of transcription (wt; stable): % @ 1000 [1]: 0% (2×) and 1%; Fas killing (wt, stable): % @ 1000 [2]: 0% @ 1000 |
| CCC(CC)C(=O)N1CCCC[C@H]1C(=O)O[C@H](CCc1ccc(OC)c(OC)c1)c1cccc(OCC(=O)NCCNC(=O)COc2cccc([C@@H](CCc3ccc(OC)c(OC)c3)OC(=O)[C@@H]3CCCCN3C(=O)C(CC)CC)c2)c1 [AP1891] |  |  |  |  |  |  |  | activation of transcription (wt; stable): % @ 1000 [1]: 0% @ 1000; Fas killing (wt, stable): % @ 1000 [2]: 0% @ 1000 |
| CCC(CC)NC(=O)N1CCCC[C@H]1C(=O)O[C@H](CCc1ccc(OC)c(OC)c1)c1cccc(OCC(=O)NCCNC(=O)COc2cccc([C@@H](CCc3ccc(OC)c(OC)c3)OC(=O)[C@@H]3CCCCN3C(=O)NC(CC)CC)c2)c1 [AP1966] |  |  |  |  |  |  | 58 nM |  |
| COc1ccc(CC[C@@H](OC(=O)[C@@H]2CCCCN2C(=O)C(c2ccccc2)c2ccccc2)c2cccc(OCC(=O)O)c2)cc1OC [AP14245] | 684 nM |  | 273 nM | 127 nM | 562 nM | 173 nM |  |  |
| CC[C@H](C(=O)N1CCCC[C@H]1C(=O)O[C@H](CCN1CCOCC1)c1cccc(OCC(=O)O)c1)c1cc(OC)c(OC)c(OC)c1 [AP14246, (1R)-1-(3-(carboxymethoxy)phenyl)-3-(morpholino)-1-propyl (2S)-1-((2S)-(3,4,5-trimethoxyphenyl)butyryl)-2-piperdine carboxylate] |  |  |  |  |  |  | 16.5 nM |  |
| AP1903 |  |  |  |  |  |  |  | EC50 ([3]; Alamar Blue readout, read-out: concentration of dimerizer corresponding to 50% of control (cell viability, Alamar Blue)): < 1 nM; EC50 ([3]; hGH readout, read-out: concentration of dimerizer corresponding to 50% of control (hGH levels)): < 1 nM; EC50 ([2]; mean values, read-out: Fas killing (wt, stable) EC50): 40 to 50 nM |
